Assay [1] concerns 5′-d(CGCATATATGCG)-3′ (DNA, duplex) CGCATATATGCG
The assay is described as follows: 1H NMR titration and NOESY. The following applies: 50 mM phosphate pH 7.4, 9:1 H2O/D2O, 298 K (cooled to 274 K); 1 mM duplex; slow exchange.

The test system is the same in assay [2]. Briefly: native nESI-MS. Conditions: K+ 100 μM (KCl), NH4+ 150 mM; 150 mM ammonium acetate, pH 7, 1% DMSO; 9 μM DNA, 100 μM compound.

As to `Cn1cc(NC(=O)c2cc(NC(=O)c3ccc(/C=C/c4cnc5ccccc5c4)cc3)cn2C)cc1C(=O)NCCN1CCOCC1`, the binding result in assay [1] and in assay [2] was “yes” throughout.

The values above are taken from paper PMC9745797 (2022).
